Source: US20260199423A1, “COMPOSITIONS COMPRISING AN ONCOLYTIC PEPTIDE AND CHITOSAN” (LYTIX BIOPHARMA AS, priority 2022, published 2026)

Test system: B16F1 melanoma cells
Assay: Melanoma mouse model, injection into the tumor
Assay type: in vivo, C57BL/6NRj mice
Conditions: 50 μl into the tumor on two consecutive days; groups of 10 mice; FIG. 2
Experimental: The following compositions were prepared as described in Example 1 in aqueous acetic acid/acetate buffer, pH 5.2. The following chitosan was used in this study: chitosan medium molecular weight, 330 kDa, DAA 86% (manufacturer Chitinor, Norway). • 1: LTX-401, 5 mg/ml (free base) • 2: Chitosan, 1.2% (w/w) • 3: LTX-401, 5 mg/ml (free base) and chitosan, 1.2% (w/w) • 4: Control: aqueous acetic acid/acetate buffer
Immunocompetent C57BL/6NRj mice (JanVier Labs, France) were inoculated with B16F1 melanoma cells on day 0 by subcutaneous injection of 5×10^4 tumor cells per mouse/50 μl RPMI-1640 in the skin on the abdomen of the animal. The mice were divided into 4 groups of 10 mice each, and treatment was initiated when the tumors were palpable and reached the desired size of approximately 5 mm in diameter (40-80 mm^3). The respective compositions 1~4 were administered by injection into the tumor (50 μl) on two consecutive days (day 11 and 12 or day 12 and 13 or day 13 and 14, depending on tumor growth). The mice were monitored during the study by measuring the tumors and weighing the animals regularly. The tumor volume was measured using an electronic caliper and expressed as volume V=(L×W×W)/2, where W is the tumor width and L is the tumor length. […]

## NCCNC(=O)C(CN)(CCCc1ccccc1)CCCc1ccccc1 [LTX-401]
  Survival: 60%
